Test results published in patent US20260325685A1, “Radiopharmaceutical Compositions Targeting Carbonic Anhydrase IX and Uses Thereof” (RayzeBio, Inc., priority 2023, published 2026).

Legend:
[1] = molecular target: T1, human CA-IX (Homo sapiens, UniProt Q16790); assay: Surface Plasmon Resonance (SPR) binding kinetics to recombinant human CA-IX (Biacore 8K, single-cycle kinetics, 1:1 binding model); conditions: Chelated Metal: Lu-175; SPR, 25° C., pH 7.4; read-out: CAIX KD
T1 construct: purchased Acro CA9-H82E3
Summary of the method: (§1)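 First, ligand at 10 μg/mL was captured on streptavidin to 1200-1800 RU, with 180 s injection for CA-IX and 75 s for CA-XII. Next, compound (100-0.39 nM, 9 levels) in PBS-P+ with 1% DMSO was injected. Association lasted 120 s and dissociation 1200 s at 25° C.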

[2] = molecular target: T2, human CA-XII (Homo sapiens, UniProt O43570); assay: Surface Plasmon Resonance (SPR) binding kinetics to recombinant human CA-XII (Biacore 8K, single-cycle kinetics, 1:1 binding model); conditions: Chelated Metal: Lu-175, 25° C., pH 7.4, read-out: CAXII KD
T2 construct: purchased Creative BioMart CA12-261H
T2 sequence (O43570 25-354): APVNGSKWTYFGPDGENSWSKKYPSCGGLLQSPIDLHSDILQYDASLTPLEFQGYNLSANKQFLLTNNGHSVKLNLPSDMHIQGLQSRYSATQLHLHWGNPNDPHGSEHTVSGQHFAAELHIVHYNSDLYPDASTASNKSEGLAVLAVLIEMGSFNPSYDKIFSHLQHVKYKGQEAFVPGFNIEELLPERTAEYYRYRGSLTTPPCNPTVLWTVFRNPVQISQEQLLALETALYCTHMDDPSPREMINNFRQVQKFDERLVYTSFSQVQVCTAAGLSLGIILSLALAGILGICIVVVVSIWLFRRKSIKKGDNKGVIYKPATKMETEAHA
Summary of the method: as §1

SMILES	Kd [1] [nM]	Kd [2] [nM]
CC(CCCC(=O)N1CCC(C(=O)O)(C(=O)NCC(=O)N2CCN(C(=O)CN3CCN(CC(=O)O)CCN(CC(=O)O)CCN(CC(=O)O)CC3)C[C@@H]2C(=O)NCCn2cc(C34CC(C(=O)Nc5nnc(S(N)(=O)=O)s5)(C3)C4)nn2)CC1)(c1ccc(O)cc1)c1ccc(O)cc1.[Lu+3] [Compound 107.12]	1 to 2.5	> 10
CC(CCC(=O)N[C@@H](CC(=O)N[C@@H](CCC(=O)N1CCN(C(=O)CN2CCN(CC(=O)O)CCN(CC(=O)O)CCN(CC(=O)O)CC2)C[C@@H]1C(=O)NCCn1cc(C23CC(C(=O)Nc4nnc(S(N)(=O)=O)s4)(C2)C3)nn1)C(=O)O)C(=O)O)(c1ccc(O)cc1)c1ccc(O)cc1.[Lu+3] [Compound 107.13]	1 to 2.5	> 10
CC(CCC(=O)N[C@@H](CC(=O)N[C@@H](CCC(=O)N1CCN(C(=O)CN2CCN(CC(=O)O)CCN(CC(=O)O)CCN(CC(=O)O)CC2)C[C@@H]1Cn1cc(C23CC(C(=O)Nc4nnc(S(N)(=O)=O)s4)(C2)C3)nn1)C(=O)O)C(=O)O)(c1ccc(O)cc1)c1ccc(O)cc1.[Lu+3] [Compound 107.14]	< 1	< 1
CCCCNc1c(F)c(S(N)(=O)=O)c(F)c(F)c1S(=O)(=O)CCOCc1cn(CCNC(=O)[C@H]2CN(C(=O)CN3CCN(CC(=O)O)CCN(CC(=O)O)CCN(CC(=O)O)CC3)CCN2C(=O)C[C@H](NC(=O)[C@@H]2COCCN2C(=O)CCC(C)(c2ccc(O)cc2)c2ccc(O)cc2)C(=O)O)nn1.[Lu+3] [Compound 107.15]	1 to 2.5	> 10
NS(=O)(=O)c1nnc(NC(=O)C23CC(c4cn(CCNC(=O)[C@H]5CN(C(=O)CN6CCN(CC(=O)O)CCN(CC(=O)O)CCN(CC(=O)O)CC6)CCN5C(=O)CC[C@H](NC(=O)Cc5n[nH]c6ccccc56)C(=O)O)nn4)(C2)C3)s1.[Lu+3] [Compound 107.16]	1 to 2.5	2.5 to 10
NS(=O)(=O)c1nnc(NC(=O)C23CC(c4cn(CCNC(=O)[C@H]5CN(C(=O)CN6CCN(CC(=O)O)CCN(CC(=O)O)CCN(CC(=O)O)CC6)CCN5C(=O)CC[C@H](NC(=O)c5n[nH]c6ccccc56)C(=O)O)nn4)(C2)C3)s1.[Lu+3] [Compound 107.17]	< 1	1 to 2.5
NS(=O)(=O)c1nnc(NC(=O)C23CC(c4cn(CCNC(=O)[C@H]5CN(C(=O)CN6CCN(CC(=O)O)CCN(CC(=O)O)CCN(CC(=O)O)CC6)CCN5C(=O)[C@@H]5COCCN5C(=O)Cc5n[nH]c6ccccc56)nn4)(C2)C3)s1.[Lu+3] [Compound 107.18]	2.5 to 10	> 10
CC(CCC(=O)N1CCOC[C@H]1C(=O)N[C@@H](CC(=O)N1CCN(C(=O)CN2CCN(CC(=O)O)CCN(CC(=O)O)CCN(CC(=O)O)CC2)C[C@@H]1C(=O)NCCn1cc(C23CC(C(=O)Nc4nnc(S(N)(=O)=O)s4)(C2)C3)nn1)C(N)=O)(c1ccc(O)cc1)c1ccc(O)cc1.[Lu+3] [Compound 107.19]	1 to 2.5	> 10
CC(CCC(=O)N[C@H](CC(=O)N[C@H](CC(=O)N1CCN(C(=O)CN2CCN(CC(=O)O)CCN(CC(=O)O)CCN(CC(=O)O)CC2)C[C@H]1C(=O)NCCn1cc(C23CC(C(=O)Nc4nnc(S(N)(=O)=O)s4)(C2)C3)nn1)C(=O)O)C(=O)O)(c1ccc(O)cc1)c1ccc(O)cc1.[Lu+3] [Compound 107.21]	1 to 2.5	> 10
CC(CCC(=O)N[C@@H](CC(=O)N[C@@H](CC(=O)N1CCN(C(=O)CN2CCN(CC(=O)O)CCN(CC(=O)O)CCN(CC(=O)O)CC2)C[C@H]1C(=O)NCCn1cc(-c2ccc(C(=O)Nc3nnc(S(N)(=O)=O)s3)cc2)nn1)C(=O)O)C(=O)O)(c1ccc(O)cc1)c1ccc(O)cc1.[Lu+3] [Compound 107.22]	1 to 2.5	> 10
CC(CCCC(=O)N1CCC(C(=O)O)(C(=O)NCC(=O)N2CCN(C(=O)CN3CCN(CC(=O)O)CCN(CC(=O)O)CCN(CC(=O)O)CC3)C[C@@H]2C(=O)N[C@@H](Cn2cc(C34CC(C(=O)Nc5nnc(S(N)(=O)=O)s5)(C3)C4)nn2)C(=O)O)CC1)(c1ccc(O)cc1)c1ccc(O)cc1.[Lu+3] [Compound 107.23]	< 1	> 10
CC(CCCC(=O)N1CCC(C(=O)O)(C(=O)NCC(=O)N2CCN(C(=O)CN3CCN(CC(=O)O)CCN(CC(=O)O)CCN(CC(=O)O)CC3)C[C@@H]2C(=O)NCCn2cc(C34CCC(C(=O)Nc5nnc(S(N)(=O)=O)s5)(C3)C4)nn2)CC1)(c1ccc(O)cc1)c1ccc(O)cc1.[Lu+3] [Compound 107.24]	1 to 2.5	2.5 to 10
CN1CCN(C(=O)CCCC(C)(c2ccc(O)cc2)c2ccc(O)cc2)[C@H](C(=O)N[C@@H](CC(=O)N2CCN(C(=O)CN3CCN(CC(=O)O)CCN(CC(=O)O)CCN(CC(=O)O)CC3)C[C@@H]2C(=O)NCCn2cc(C34CC(C(=O)Nc5nnc(S(N)(=O)=O)s5)(C3)C4)nn2)C(=O)O)C1.[Lu+3] [Compound 107.25]	< 1	> 10
CC(CCC(=O)N[C@@H](CC(=O)N[C@@H](CC(=O)N1CCN(C(=O)CN2CCN(CC(=O)O)CCN(CC(=O)O)CCN(CC(=O)O)CC2)C[C@H]1C(=O)NCCn1cc(COc2ccc3nc(S(N)(=O)=O)sc3c2)nn1)C(=O)O)C(=O)O)(c1ccc(O)cc1)c1ccc(O)cc1.[Lu+3] [Compound 107.26]	< 1	> 10
CC(CCC(=O)N[C@@H](CC(=O)N[C@@H](CC(=O)N1CCN(C(=O)CN2CCN(CC(=O)O)CCN(CC(=O)O)CCN(CC(=O)O)CC2)C[C@H]1C(=O)NCCn1cc(C23CC(c4cn5nc(S(N)(=O)=O)sc5n4)(C2)C3)nn1)C(=O)O)C(=O)O)(c1ccc(O)cc1)c1ccc(O)cc1.[Lu+3] [Compound 107.27]	< 1	< 1
CC(CCC(=O)N[C@@H](CC(=O)N[C@@H](CC(=O)N1CCN(C(=O)CN2CCN(CC(=O)O)CCN(CC(=O)O)CCN(CC(=O)O)CC2)C[C@H]1C(=O)NCCn1cc(-c2ccc(-c3cn4nc(S(N)(=O)=O)sc4n3)cc2)nn1)C(=O)O)C(=O)O)(c1ccc(O)cc1)c1ccc(O)cc1.[Lu+3] [Compound 107.28]	< 1	< 1
CC(CCCC(=O)N1CCOC[C@H]1C(=O)N[C@@H](CC(=O)N1CCN(C(=O)CN2CCN(CC(=O)O)CCN(CC(=O)O)CCN(CC(=O)O)CC2)C[C@H]1C(=O)NCCn1cc(C23CC(C(=O)Nc4nnc(S(N)(=O)=O)s4)(C2)C3)nn1)C(=O)O)(c1ccc(O)cc1)c1ccc(O)cc1.[Lu+3] [Compound 107.29]	< 1	> 10
CC(CCC(=O)N[C@@H](CC(=O)N[C@@H](CC(=O)N1CCN(C(=O)CN2CCN(CC(=O)O)CCN(CC(=O)O)CCN(CC(=O)O)CC2)C[C@H]1C(=O)NCCn1cc(-c2ccc(C(=O)Nc3nnc(S(N)(=O)=O)s3)c(Cl)c2)nn1)C(=O)O)C(=O)O)(c1ccc(O)cc1)c1ccc(O)cc1.[Lu+3] [Compound 107.30]	< 1	1 to 2.5
CC(CCCC(=O)N1CCC(C#N)(C(=O)NCC(=O)N2CCN(C(=O)CN3CCN(CC(=O)O)CCN(CC(=O)O)CCN(CC(=O)O)CC3)C[C@@H]2C(=O)NCCn2cc(C34CC(C(=O)Nc5nnc(S(N)(=O)=O)s5)(C3)C4)nn2)CC1)(c1ccc(O)cc1)c1ccc(O)cc1.[Lu+3] [Compound 107.31]	1 to 2.5	> 10
CC1(C)CN(C(=O)CCCC(C)(c2ccc(O)cc2)c2ccc(O)cc2)[C@H](C(=O)N[C@@H](CC(=O)N2CCN(C(=O)CN3CCN(CC(=O)O)CCN(CC(=O)O)CCN(CC(=O)O)CC3)C[C@@H]2C(=O)NCCn2cc(C34CC(C(=O)Nc5nnc(S(N)(=O)=O)s5)(C3)C4)nn2)C(=O)O)CO1.[Lu+3] [Compound 107.32]	< 1	> 10
